Data published in paper PMC10647805 (2023).

How the values were obtained:
[1] = tested on: c-KIT1 (DNA, G4) GGGAGGGCGCTGGGAGGAGGG; test: variable-temperature CD; conditions: K+ (100 mM KF, 10 mM potassium phosphate); PBS pH 7.4; 2 μM DNA, 5 equivalents (10 μM) compound
[2] = tested on: TBA (DNA, G4) GGTTGGTGTGGTTGG; test: variable-temperature CD; conditions: K+ (100 mM KF, 10 mM potassium phosphate); PBS pH 7.4; 5 μM DNA, 5 equivalents (25 μM) compound
[3] = tested on: c-KIT1 (DNA, G4) GGGAGGGCGCTGGGAGGAGGG; test: UV-Vis titration; conditions: K+ (100 mM KF, 10 mM potassium phosphate); PBS pH 7.4, ca. 20 °C; 2 μM DNA; 1:1 fit
[4] = tested on: dsDNA (DNA, hairpin, HEG linker (non-nucleotide loop) between 10 and 11) TATAGCTATATATAGCTATA; test: UV-Vis titration; conditions: K+ (100 mM KF, 10 mM potassium phosphate); PBS pH 7.4, ca. 20 °C; 5 μM DNA; 1:1 fit; per base
[5] = tested on: h-TELO (DNA, G4) AGGGTTAGGGTTAGGGTTAGGGT; test: variable-temperature CD; conditions: K+ (100 mM KF, 10 mM potassium phosphate); PBS pH 7.4; 5 μM DNA, 5 equivalents (25 μM) compound
[6] = tested on: h-TELO (DNA, G4) AGGGTTAGGGTTAGGGTTAGGGT; test: UV-Vis titration; conditions: K+ (100 mM KF, 10 mM potassium phosphate); PBS pH 7.4, ca. 20 °C; 5 μM DNA; 1:1 fit
[7] = tested on: dsDNA (DNA, hairpin, HEG linker (non-nucleotide loop) between 10 and 11) TATAGCTATATATAGCTATA; test: variable-temperature CD; conditions: K+ (100 mM KF, 10 mM potassium phosphate); PBS pH 7.4; 5 μM DNA, 5 equivalents (25 μM) compound; per base

ΔTm [1] [°C]	ΔTm [2] [°C]	KD [3] [µM]	KD [4] [µM]	ΔTm [5] [°C]	KD [6] [µM]	ΔTm [7] [°C]	Compound
5.4	0.1	2.6 ± 0.4	65.2 ± 35.9	2.4			CC(C)(C)OC(=O)N[C@@H](CN1C(=O)c2ccc3c4c(ccc(c24)C1=O)C(=O)N(C[C@H](NC(=O)OC(C)(C)C)C(=O)O)C3=O)C(=O)O
1.7		8.0 ± 2.5	30.7 ± 6.9				CC(C)(C)OC(=O)N[C@H](CN1C(=O)c2ccc3c4c(ccc(c24)C1=O)C(=O)N(C[C@@H](NC(=O)OC(C)(C)C)C(=O)O)C3=O)C(=O)O
3.2							O=C(O)[C@@H](O)CN1C(=O)c2ccc3c4c(ccc(c24)C1=O)C(=O)N(C[C@H](O)C(=O)O)C3=O

Continued, compound first:

Compound	ΔTm [1] [°C]	ΔTm [2] [°C]	KD [3] [µM]	KD [4] [µM]	ΔTm [5] [°C]	KD [6] [µM]	ΔTm [7] [°C]
CC(C)C[C@@H](CC(=O)O)N1C(=O)c2ccc3c4c(ccc(c24)C1=O)C(=O)N([C@H](CC(=O)O)CC(C)C)C3=O		−0.1		23.6 ± 8.4	1.7	11.0 ± 3.1	
CC(C)C[C@H](CC(=O)O)N1C(=O)c2ccc3c4c(ccc(c24)C1=O)C(=O)N([C@@H](CC(=O)O)CC(C)C)C3=O	−0.9			50.2 ± 15.4		13.6 ± 3.4	
C[C@@H](CC(=O)O)N1C(=O)c2ccc3c4c(ccc(c24)C1=O)C(=O)N([C@@H](C)CC(=O)O)C3=O					0.2		−2.1
O=C(O)[C@@H](O)[C@@H](Cc1ccccc1)N1C(=O)c2ccc3c4c(ccc(c24)C1=O)C(=O)N([C@H](Cc1ccccc1)[C@H](O)C(=O)O)C3=O		0.8					−0.1
